Test results reported in the supplement of paper PMC5412046.
Structures can show the parent of a compound that is named as a salt.

Experiments:
[1] = tested on: SB.mhdgc-1; assay: area under the dose-response curve of % viability (trapezoidal, 11 doses) (% viability x log10 concentration); higher = less cytotoxic; settings: SB.mhdgc-1 (hereditary c.1380delA CDH1 gastric cancer)
Method in brief: (§1)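 Each entry is viability relative to DMSO, given either at the highest concentration tested or as a trapezoidal area under the curve. Gastric cancer cells from hereditary or sporadic patients (500 cells in 5 μL medium per 1536 well) received compound in DMSO at 11 threefold-diluted concentrations, 23 nL by pintool. Luminescence from CellTiter-Glo was read after 48 h.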

[2] = tested on: SB.msgc-1; assay: as above; settings: SB.msgc-1 (sporadic gastric cancer)
Method in brief: as §1

[3] = tested on: SB.mhdgc-1; assay: viability at highest tested concentration (MAXR) relative to DMSO; higher = less cytotoxic; settings: SB.mhdgc-1 (hereditary c.1380delA CDH1 gastric cancer)
Method in brief: as §1

[4] = tested on: SB.msgc-1; assay: as above; settings: SB.msgc-1 (sporadic gastric cancer)
Method in brief: as §1

SMILES	area under the dose-response curve [1]	area under the dose-response curve [2]	viability [3]	viability [4]
COc1cc2ncnc(Nc3ccc(F)c(Cl)c3)c2cc1OCCCN1CCOCC1 [Gefitinib] (top concentration 92.1659 µM)	278	314	3.99%	16%
Cc1c(CN2CCN([S+](C)(=O)[O-])CC2)sc2c(N3CCOCC3)nc(-c3cnc(N)nc3)nc12 [GNE-477] (top concentration 46.0829 µM)	247	328	11.1%	31.5%
NC(=O)c1cccnc1 [Niacinamide] (top concentration 46.0829 µM)	567	492	149%	87.7%
FC1=C(C=C(C\C2=N\NC(=O)C3=C2C=CC=C3)C=C1)C(=O)N4CCN(CC4)C(=O)C5CC5 [Olaparib] (top concentration 46.0829 µM)	412	442	47.4%	54.9%
c1ccc(-c2oc3ncnc(NC[C@@H]4CCCO4)c3c2-c2ccccc2)cc1 [AIM-100] (top concentration 46.0829 µM)	481	426	11.8%	34.9%
CC(C)OC(=O)CCC/C=C\C[C@@H]1[C@@H](/C=C/[C@@H](O)COc2cccc(C(F)(F)F)c2)[C@H](O)C[C@@H]1O [Travoprost] (top concentration 46.0829 µM)	523	535	70.6%	97%
Cc1ccccc1C(OCCN(C)C)c1ccccc1 (stereo not drawn) [Orphenadrine hydrochloride] (top concentration 46.0829 µM)	502	537	117%	111%
COc1c(Cl)cc2c([nH]c3cnccc32)c1NC(=O)c1cccnc1C [MLN-120B] (top concentration 46.0829 µM)	416	513	39.2%	78.2%
Cc1cc(C(=O)N2CCN(c3cccc(Cl)c3)CC2)n(-c2ccccc2)n1 [XRP-44X] (top concentration 46.0829 µM)	452	471	46.5%	35.7%
CNc1nccc(-c2cccnc2Oc2cc(C(=O)Nc3cccc(C(F)(F)F)c3)ccc2C)n1 [AMG-Tie2-1] (top concentration 46.0829 µM)	505	494	28.4%	37.3%
CC1SC/2=C(C(O)=O)/C(=O)C3=CC(=C(C=C3N12)N4CCN(CC4)C\C5=C(C)\OC(=O)O5)F (stereo not drawn) [Prulifloxacin] (top concentration 46.0829 µM)	514	582	93.9%	106%
CC/C=C\C[C@H]1C(=O)CC[C@@H]1CC(=O)OC [methyl jasmonate] (top concentration 46.0829 µM)	523	548	102%	102%
CCN1CCC(n2cc(CNc3cc(Cl)c4ncc(C#N)c(Nc5ccc(F)c(Cl)c5)c4c3)nn2)CC1 [Wyeth Cot inhibitor-2] (top concentration 46.0829 µM)	389	476	1.55%	29.5%
C\C1=C\C(=O)C2=C(C=CC=C2)C1=O [Menadione] (top concentration 46.0829 µM)	465	511	1.13%	48.1%
COc1cc2ncnc(Nc3ccc(F)c(Cl)c3)c2cc1NC(=O)/C=C/CN1CCCCC1 [Dacomitinib] (top concentration 46.0829 µM)	425	230	1.99%	0.19%
CCN1CCN(Cc2ccc(-c3cc4c(N[C@H](C)c5ccccc5)ncnc4[nH]3)cc2)CC1 [AEE-788] (top concentration 46.0829 µM)	214	189	6.64%	24.6%
N=C1N[C@H]2[C@H](CS[C@H]2CCCCC(=O)O)N1 [2-Iminobiotin] (top concentration 23.0415 µM)	624	592	122%	124%
C\C1=N\N(C(=O)C1)C2=CC=CC=C2 [Edaravone] (top concentration 46.0829 µM)	497	530	121%	117%
CC(C)C[C@H](NC(=O)[C@H](CCc1ccccc1)NC(=O)CN1CCOCC1)C(=O)N[C@@H](Cc1ccccc1)C(=O)N[C@@H](CC(C)C)C(=O)[C@@]1(C)CO1 [Carfilzomib] (top concentration 46.0829 µM)	149	157	3.86%	2.2%
Nc1ccccc1NC(=O)c1ccc(CNC(=O)OCc2cccnc2)cc1 [Entinostat] (top concentration 46.0829 µM)	506	390	44.9%	11%
CC(C)(C)[C@]1(O)C[C@@H]2OC(=O)C[C@@]23C(=O)O[C@@H]2OC(=O)[C@H](O)C213 (stereo partly drawn) [Bilobalide] (top concentration 46.0829 µM)	577	501	109%	80.6%
OC[C@H]1O[C@H](C[C@@H]1O)N2\C=C(F)/C(=O)NC2=O [Floxuridine] (top concentration 46.0829 µM)	322	369	49.2%	31.9%
